Measurements as given in ChEMBL document CHEMBL3885881, “DrugMatrix”.

Species on record: Rattus norvegicus
Test: DrugMatrix - Regimen: Daily Repeat
Format: toxicity, organism-based, Sprague-Dawley
Parameters: regimen Daily Repeat, gender Male, age 6-8 weeks
Conditions: in vivo, po, 0 mg/kg, route oral GAVAGE, dose level Control, vehicle 100 % SALINE; for ABSOLUTE BASOPHIL / ABSOLUTE EOSINOPHIL / ABSOLUTE LYMPHOCYTE / ABSOLUTE MONOCYTE / ABSOLUTE SEGMENTED NEUTROPHIL / BASOPHIL / EOSINOPHIL / ERYTHROCYTE COUNT / HEMATOCRIT / HEMOGLOBIN / LEUKOCYTE COUNT / LYMPHOCYTE / MEAN CORPUSCULAR HEMOGLOBIN / MEAN CORPUSCULAR HEMOGLOBIN CONCENTRATION / MEAN CORPUSCULAR VOLUME / MONOCYTE / NEUTROPHIL / NUCLEATED RED BLOOD CELLS / PLATELET COUNT: tissue Blood; for ALANINE AMINOTRANSFERASE / ALBUMIN / ALKALINE PHOSPHATASE / ASPARTATE AMINOTRANSFERASE / BLOOD UREA NITROGEN / CARBON DIOXIDE / CHLORIDE / CHOLESTEROL / CREATINE PHOSPHOKINASE / CREATININE / GLUCOSE / LACTATE DEHYDROGENASE / LIPASE / PHOSPHORUS / POTASSIUM / SODIUM / TOTAL BILIRUBIN / TOTAL PROTEIN / URIC ACID: tissue Plasma

`O=P1(NCCCl)OCCCN1CCCl` (stereo unspecified) [IFOSFAMIDE] was tested, and the “ABSOLUTE BASOPHIL” value (72 h, time 3 day) was 0 CELLS/uL, the “ABSOLUTE EOSINOPHIL” value (72 h, time 3 day) was 0 CELLS/uL and the “ABSOLUTE LYMPHOCYTE” value (72 h, time 3 day) was 8960.83 CELLS/uL. The “ABSOLUTE MONOCYTE” value (72 h, time 3 day) was 103.5 CELLS/uL, the “ABSOLUTE SEGMENTED NEUTROPHIL” value (72 h, time 3 day) was 635.67 CELLS/uL and the BASOPHIL (72 h, time 3 day) was 0%. The EOSINOPHIL (72 h, time 3 day) was 0%, the “ERYTHROCYTE COUNT” value (72 h, time 3 day) was 5.09 x10E6/uL and the HEMATOCRIT (72 h, time 3 day) was 31.8%. The HEMOGLOBIN (72 h, time 3 day) was 12.42 G/DL, the “LEUKOCYTE COUNT” value (72 h, time 3 day) was 9.7 x10E3/uL and the LYMPHOCYTE (72 h, time 3 day) was 92.33%. The “MEAN CORPUSCULAR HEMOGLOBIN” value (72 h, time 3 day) was 24.4 pg, the “MEAN CORPUSCULAR HEMOGLOBIN CONCENTRATION” value (72 h, time 3 day) was 39.07 G/DL and the “MEAN CORPUSCULAR VOLUME” value (72 h, time 3 day) was 62.47 fL. The MONOCYTE (72 h, time 3 day) was 1%, the NEUTROPHIL (72 h, time 3 day) was 6.67% and the “NUCLEATED RED BLOOD CELLS” value (72 h, time 3 day) was 0 /100WBC. For the same compound, the “PLATELET COUNT” value (72 h, time 3 day) was 466.5 x10E3/uL, the “ALANINE AMINOTRANSFERASE” value (72 h, time 3 day) was 83.33 u/L and the ALBUMIN (72 h, time 3 day) was 4.33 G/DL. For the same compound, the “ALKALINE PHOSPHATASE” value (72 h, time 3 day) was 340.5 u/L, the “ASPARTATE AMINOTRANSFERASE” value (72 h, time 3 day) was 189.83 u/L and the “BLOOD UREA NITROGEN” value (72 h, time 3 day) was 15.83 mg/dL. For the same compound, the “CARBON DIOXIDE” value (72 h, time 3 day) was 38 mmol/L, the CHLORIDE (72 h, time 3 day) was 96.83 MEQ/L and the CHOLESTEROL (72 h, time 3 day) was 72.5 mg/dL. The “CREATINE PHOSPHOKINASE” value (72 h, time 3 day) was 370.67 u/L, the CREATININE (72 h, time 3 day) was 0.28 mg/dL and the GLUCOSE (72 h, time 3 day) was 182.83 mg/dL. For the same compound, the “LACTATE DEHYDROGENASE” value (72 h, time 3 day) was 513.5 u/L, the LIPASE (72 h, time 3 day) was 9.83 u/L and the PHOSPHORUS (72 h, time 3 day) was 11.32 mg/dL. For the same compound, the POTASSIUM (72 h, time 3 day) was 6.32 MEQ/L, the SODIUM (72 h, time 3 day) was 145.12 MEQ/L and the “TOTAL BILIRUBIN” value (72 h, time 3 day) was 0.2 mg/dL. The “TOTAL PROTEIN” value (72 h, time 3 day) was 6.4 G/DL, the “URIC ACID” value (72 h, time 3 day) was 2.03 mg/dL and the “ABSOLUTE BASOPHIL” value (120 h, time 5 day) was 0 CELLS/uL. The “ABSOLUTE EOSINOPHIL” value (120 h, time 5 day) was 43.83 CELLS/uL, the “ABSOLUTE LYMPHOCYTE” value (120 h, time 5 day) was 7316.67 CELLS/uL and the “ABSOLUTE MONOCYTE” value (120 h, time 5 day) was 87.33 CELLS/uL. For the same compound, the “ABSOLUTE SEGMENTED NEUTROPHIL” value (120 h, time 5 day) was 418.83 CELLS/uL, the BASOPHIL (120 h, time 5 day) was 0% and the EOSINOPHIL (120 h, time 5 day) was 0.33%. The “ERYTHROCYTE COUNT” value (120 h, time 5 day) was 4.77 x10E6/uL, the HEMATOCRIT (120 h, time 5 day) was 29.93% and the HEMOGLOBIN (120 h, time 5 day) was 11.48 G/DL. For the same compound, the “LEUKOCYTE COUNT” value (120 h, time 5 day) was 7.87 x10E3/uL, the LYMPHOCYTE (120 h, time 5 day) was 93.5% and the “MEAN CORPUSCULAR HEMOGLOBIN” value (120 h, time 5 day) was 24.17 pg. The “MEAN CORPUSCULAR HEMOGLOBIN CONCENTRATION” value (120 h, time 5 day) was 38.57 G/DL, the “MEAN CORPUSCULAR VOLUME” value (120 h, time 5 day) was 62.68 fL and the MONOCYTE (120 h, time 5 day) was 1%. For the same compound, the NEUTROPHIL (120 h, time 5 day) was 5.17%, the “NUCLEATED RED BLOOD CELLS” value (120 h, time 5 day) was 0 /100WBC and the “PLATELET COUNT” value (120 h, time 5 day) was 377.67 x10E3/uL. The “ALANINE AMINOTRANSFERASE” value (120 h, time 5 day) was 89 u/L, the ALBUMIN (120 h, time 5 day) was 4.42 G/DL and the “ALKALINE PHOSPHATASE” value (120 h, time 5 day) was 275.17 u/L. The “ASPARTATE AMINOTRANSFERASE” value (120 h, time 5 day) was 204.17 u/L, the “BLOOD UREA NITROGEN” value (120 h, time 5 day) was 15.33 mg/dL and the “CARBON DIOXIDE” value (120 h, time 5 day) was 36.83 mmol/L. For the same compound, the CHLORIDE (120 h, time 5 day) was 94.67 MEQ/L, the CHOLESTEROL (120 h, time 5 day) was 92 mg/dL and the “CREATINE PHOSPHOKINASE” value (120 h, time 5 day) was 514.5 u/L. The CREATININE (120 h, time 5 day) was 0.24 mg/dL, the GLUCOSE (120 h, time 5 day) was 184.17 mg/dL and the “LACTATE DEHYDROGENASE” value (120 h, time 5 day) was 648.67 u/L. It also gave an LIPASE (120 h, time 5 day) of 10 u/L, a PHOSPHORUS (120 h, time 5 day) of 12.33 mg/dL and a POTASSIUM (120 h, time 5 day) of 6.51 MEQ/L. For the same compound, the SODIUM (120 h, time 5 day) was 144.63 MEQ/L, the “TOTAL BILIRUBIN” value (120 h, time 5 day) was 0.18 mg/dL and the “TOTAL PROTEIN” value (120 h, time 5 day) was 6.7 G/DL. The “URIC ACID” value (120 h, time 5 day) was 2.33 mg/dL.
